The values below come from patent publication US8367712B2, “Substituted amide beta secretase inhibitors” (Merck, Sharp & Dohme, Corp., priority 2004, dated 2013).

The assay deals with T1, sproBACE1 (soluble form of human BACE1) (Homo sapiens, UniProt P56817).
T1 construct: sBACE1, corresponding to amino acids 1-454; made in house; host or cells: Sf9 insect cells (baculovirus), secreted into the medium
Description: Peptide Hydrolysis Assay (HTRF, EuK-biotin labeled APPsw substrate). The note with it: 7 nM sproBACE1, 25 nM EuK-biotin APPsw substrate, pH 5.0, 3 hr at 30° C. Format: biochemical. The source says:
A predicted soluble form of human BACE1 (sBACE1, corresponding to amino acids 1-454) was generated from the full length BACE1 cDNA (full length human BACE1 cDNA in pcDNA4/mycHisA construct; University of Toronto) by PCR using the advantage-GC cDNA PCR kit (Clontech, Palo Alto, Calif.). A HindIII/PmeI fragment from pcDNA4-sBACE1myc/His was blunt ended using Klenow and subcloned into the StuI site of pFASTBACI(A) (Invitrogen). A sBACE1mycHis recombinant bacmid was generated by transposition in DH10Bac cells(GIBCO/BRL). Subsequently, the sBACE1 mycHis bacmid construct was transfected into sf9 cells using CellFectin (Invitrogen, San Diego, Calif.) in order to generate recombinant baculovirus. […]
Proteins, were eluted from the Q-sepharose column with Buffer B (20 mM HEPES, pH 8.0, 500 mM NaCl). […] Peak protein fractions as determined by the Bradford Assay (Biorad, CA) were concentrated using a Centricon 30 concentrator (Millipore). sBACE1 purity was estimated to be ˜90% as assessed by SDS-PAGE and Commassie Blue staining. […]
IC50 determinations for inhibitors, (I), were determined by measuring the percent change of the relative fluorescence at 665 nm divided by the relative fluorescence at 620 nm, (665/620 ratio), in the presence of varying concentrations of I and a fixed concentration of enzyme and substrate. […]
(In general: In TR-FRET formats the signal depends on donor and acceptor labels being close together.)

T1 sequence (P56817 22-454): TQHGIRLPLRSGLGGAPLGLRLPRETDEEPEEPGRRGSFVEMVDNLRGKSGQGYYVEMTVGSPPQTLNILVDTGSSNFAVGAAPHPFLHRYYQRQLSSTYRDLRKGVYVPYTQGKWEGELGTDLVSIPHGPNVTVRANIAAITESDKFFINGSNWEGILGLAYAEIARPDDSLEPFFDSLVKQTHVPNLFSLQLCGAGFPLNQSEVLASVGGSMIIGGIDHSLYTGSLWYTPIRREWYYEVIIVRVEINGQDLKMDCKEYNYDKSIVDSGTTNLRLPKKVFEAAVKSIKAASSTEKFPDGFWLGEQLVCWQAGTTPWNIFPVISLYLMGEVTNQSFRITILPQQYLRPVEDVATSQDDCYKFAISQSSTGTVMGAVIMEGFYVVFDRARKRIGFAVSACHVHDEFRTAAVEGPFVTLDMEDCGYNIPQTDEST

For `CC(=O)N[C@@H](Cc1cc(F)cc(OCc2ccncc2)c1)[C@H](O)[C@@H]1NCCN(Cc2ccccc2)C1=O`, the 50% inhibitory concentration (IC50) (commonly the concentration at which inhibition is half-maximal) worked out at 186 nM.
